A word on the EC50: it is the midpoint of the concentration-response curve. Lower therefore signals an effect from little substance.

The test system of the first experiment is Per2-dLuc U2OS reporter cells. In words: Per2 assay for evaluating the potency of test compounds (high-throughput circadian assay). The note with it: Homo sapiens, U2OS, stable U2OS reporter cells harboring Per2-dLuc; luminescence monitored over 4-5 days at 35° C. It counts as cell-based. The protocol:
Compounds were screened by using a high-throughput circadian assay system as previously described in Zhang, E. E. et al. Cell, 2009, 139, 199-210. In brief, stable U2OS reporter cells harboring Per2-dLuc were plated at a density of 8,000 cells/well in Corning 96-well, solid white, flat bottom, TC-treated microplates (Corning®), and incubated for 24 hours at 37° C. in the presence of 5% CO2. The cells were then synchronized by serum shock by media exchange to a minimal explant media (10 mM HEPES (pH 7.0), 2% B27, 1×PSG (Invitrogen®), and 1.0 mM beetle luciferin (Promega®)) followed by the addition of the compounds of formula I dissolved in dimethylsulfoxide (0.5% final dimethylsulfoxide concentration). Gene expression was monitored by measuring luminescence (TecanR M200) over 4-5 days at 35° C. The period, amplitude, and phase of the associated circadian rhythms were determined using Multicycle™ software (Actimetrics, Inc). EC50 values of the compounds of formula I were calculated using Graphpad™ (Prism®).
In turn, `O=S1(=O)CCCN1CC(O)Cn1c2ccccc2c2ccccc21` (stereo not drawn) [Compound 20, N-(3-(9H-Carbazol-9-yl)-2-hydroxypropyl)isothiazolidine 1,1-dioxide] registered an EC50 of 29 nM.

Turning to `CCN1CCN(CC(C)(O)Cn2c3ccc(F)cc3c3cc(F)ccc32)S1(=O)=O` (stereo not drawn) [Compound 219], the EC50 was 1580 nM. Still for that read-out and setting: with `COCCN(CC(O)Cn1c2cc(F)ccc2c2ccc(F)cc21)S(C)(=O)=O` (stereo not drawn) [Compound 95, N-(3-(2,7-Difluoro-9H-carbazol-9-yl)-2-hydroxypropyl)-N-(2-methoxyethyl)methanesulfonamide] the figure was 2740 nM; with `CS(=O)(=O)N(CC(O)Cn1c2ccc(F)cc2c2cc(F)ccc21)c1ccc(OC(F)F)cc1` (stereo not drawn) [Compound 206, N-(3-(3,6-Difluoro-9H-carbazol-9-yl)-2-hydroxypropyl)-N-(4-(difluoromethoxy)phenyl)methanesulfonamide], 2850 nM.

In the case of `CCCN(CC(O)Cn1c2ccc(F)cc2c2cc(F)ccc21)S(C)(=O)=O` (stereo not drawn) [Compound 153, N-(3-(3,6-Difluoro-9H-carbazol-9-yl)-2-hydroxypropyl)-N-propylmethanesulfonamide], the EC50 came to 396 nM. Still for that read-out and setting: with `CS(=O)(=O)N(CC(O)Cn1c2ccccc2c2ccccc21)c1cccc2ccccc12` (stereo not drawn) [Compound 27, N-(3-(9H-Carbazol-9-yl)-2-hydroxypropyl)-N-(naphthalen-1-yl)methanesulfonamide] the figure was 250 nM; with `CC(O)(CN1CCCN(C2CCC2)S1(=O)=O)Cn1c2ccc(F)cc2c2cc(F)ccc21` (stereo not drawn) [Compound 229, 2-(3-(3,6-Difluoro-9H-carbazol-9-yl)-2-hydroxy-2-methylpropyl)-6-cyclobutyl-1,2,6-thiadiazinane-1,1-dioxide], 4980 nM.

In turn, `CS(=O)(=O)N(Cc1ccco1)CC(O)Cn1c2ccc(F)cc2c2cc(F)ccc21` (stereo not drawn) [Compound 88, N-(3-(3,6-Difluoro-9H-carbazol-9-yl)-2-hydroxypropyl)-N-(furan-2-ylmethyl)methanesulfonamide] registered an EC50 of 940 nM.

Turning to `O=S(=O)(c1cn[nH]c1)N(Cc1ccco1)CC(O)Cn1c2ccccc2c2ccccc21` (stereo not drawn) [Compound 5, N-(3-(9H-Carbazol-9-yl)-2-hydroxypropyl)-N-(furan-2-ylmethyl)-1H-pyrazole-4-sulfonamide], the EC50 came out at 8190 nM. The same measure, in the same setting: for `CS(=O)(=O)N(CC(O)Cn1c2ccccc2c2ccccc21)c1ccc2cn[nH]c2c1` (stereo not drawn) [Compound 78, N-(3-(9H-Carbazol-9-yl)-2-hydroxypropyl)-N-(1H-indazol-6-yl)methanesulfonamide] the value was 6350 nM. Same read-out and setting: for `CC1(N(CC(O)Cn2c3ccccc3c3ccccc32)S(C)(=O)=O)CC1` (stereo not drawn) [Compound 137, N-(3-(9H-Carbazol-9-yl)-2-hydroxypropyl)-N-(1-methylcyclopropyl)methanesulfonamide] the value was 76 nM. On the same count and under the same terms, with `CS(=O)(=O)N(CC(O)Cn1c2cc(F)ccc2c2ccc(F)cc21)C1CC1` (stereo not drawn) [Compound 161, N-Cyclopropyl-N-(3-(2,7-difluoro-9H-carbazol-9-yl)-2-hydroxypropyl)methanesulfonamide] the figure was 1140 nM. In the case of `Cc1ccccc1N(CC(O)Cn1c2ccccc2c2ccccc21)S(C)(=O)=O` (stereo not drawn) [Compound 62, N-(3-(9H-Carbazol-9-yl)-2-hydroxypropyl)-N-o-tolylmethanesulfonamide], the EC50 came out at 1330 nM. `CC1CCN(CC(O)Cn2c3ccc(F)cc3c3cc(F)ccc32)S1(=O)=O` (stereo not drawn) [Compound 177] returned an EC50 of 202 nM.

As to `CS(=O)(=O)N(CC(O)Cn1c2ccc(F)cc2c2cc(F)ccc21)c1ccc(OC2CC2)cc1` (stereo not drawn) [Compound 212, N-(4-Cyclopropoxyphenyl)-N-(3-(3,6-difluoro-9H-carbazol-9-yl)-2-hydroxypropyl)methanesulfonamide], the EC50 came to 1800 nM. Turning to `CCOCCS(=O)(=O)N(Cc1ccco1)CC(O)Cn1c2ccccc2c2ccccc21` (stereo not drawn) [Compound 12, N-(3-(9H-Carbazol-9-yl)-2-hydroxypropyl)-2-ethoxy-N-(furan-2-ylmethyl)ethanesulfonamide], the EC50 stood at 1010 nM. On the same count and under the same terms, for `CC1CC(N(CC(C)(O)Cn2c3ccc(F)cc3c3cc(F)ccc32)S(C)(=O)=O)C1` (stereo not drawn) [Compound 191, N-(3-(3,6-Difluoro-9H-carbazol-9-yl)-2-hydroxy-2-methylpropyl)-N-(3-methylcyclobutyl)methanesulfonamide] the value was 1190 nM; for `CS(=O)(=O)NCC(O)Cn1c2ccc(F)cc2c2ccc(F)cc21` (stereo not drawn) [Compound 168, N-(3-(2,6-Difluoro-9H-carbazol-9-yl)-2-hydroxypropyl)methanesulfonamide], 391 nM. Still for that read-out and setting: for `O=S1(=O)CCCCN1C[C@@H](O)Cn1c2ccccc2c2ccccc21` [Compound 38, (S)-N-(3-(9H-Carbazol-9-yl)-2-hydroxypropyl)-1,2-thiazinane 1,1-dioxide] the value was 11 nM; for `O=S1(=O)c2ccccc2CN1CC(O)Cn1c2ccccc2c2ccccc21` (stereo not drawn) [Compound 34, N-(3-(9H-Carbazol-9-yl)-2-hydroxypropyl)-2,3-dihydrobenzo[d]isothiazole 1,1-dioxide], 31 nM.

Molecule `CS(=O)(=O)N(CC(O)Cn1c2ccccc2c2ccccc21)C1CCCC1` (stereo not drawn) [Compound 58, N-(3-(9H-Carbazol-9-yl)-2-hydroxypropyl)-N-cyclopentylmethanesulfonamide] registered an EC50 of 150 nM. Regarding `COC(=O)N1CCCC(N(CC(O)Cn2c3ccccc3c3ccccc32)S(C)(=O)=O)C1` (stereo not drawn) [Compound 130, Methyl 3-(N-(3-(9H-carbazol-9-yl)-2-hydroxypropyl)methylsulfonamido)piperidine-1-carboxylate], the response was half-maximal at 636 nM (EC50). On the same count and under the same terms, with `CS(=O)(=O)N1CCCC1C(O)Cn1c2ccccc2c2ccccc21` (stereo not drawn) [Compound 241, 2-(9H-Carbazol-9-yl)-1-(1-(methyl-sulfonyl)-pyrrolidin-2-yl)ethanol] the figure was 488 nM. Still for that read-out and setting: with `CS(=O)(=O)N(Cc1ccco1)CC(O)Cn1c2ccccc2c2c(F)cccc21` (stereo not drawn) [Compound 239, N-(3-(4-Fluoro-9H-carbazol-9-yl)-2-hydroxy-propyl)-N-(furan-2-yl-methyl)methane-sulfonamide] the figure was 1580 nM; with `CC(O)(CN1CCC(F)S1(=O)=O)Cn1c2ccc(F)cc2c2cc(F)ccc21` (stereo not drawn) [Compound 184, 2-(3-(3,6-Difluoro-9H-carbazol-9-yl)-2-hydroxy-2-methylpropyl)-5-fluoroisothiazolidine-1,1-dioxide], 155 nM.

Regarding `CS(=O)(=O)N(CC(O)Cn1c2ccccc2c2ccccc21)C1CCCCC1(F)F` (stereo not drawn) [Compound 135, N-(3-(9H-Carbazol-9-yl)-2-hydroxypropyl)-N-(2,2-difluorocyclohexyl)methanesulfonamide], the EC50 came out at 609 nM.

On to `CS(=O)(=O)N(CC(O)Cn1c2ccccc2c2ccccc21)CC1CCCCC1` (stereo not drawn) [Compound 52, N-(3-(9H-Carbazol-9-yl)-2-hydroxypropyl)-N-(cyclohexylmethyl)methanesulfonamide], for which the EC50 amounted to 306 nM.

Molecule `CS(=O)(=O)N(CC(O)Cn1c2ccc(F)cc2c2ccc(F)cc21)C1CC1` (stereo not drawn) [Compound 167, N-Cyclopropyl-N-(3-(2,6-difluoro-9H-carbazol-9-yl)-2-hydroxypropyl)methanesulfonamide] returned a concentration giving a half-maximal response (EC50) of 267 nM.

As for `CC1(N(CC(O)Cn2c3ccc(F)cc3c3cc(F)ccc32)S(C)(=O)=O)CCCC1` (stereo not drawn) [Compound 196, N-(3-(3,6-Difluoro-9H-carbazol-9-yl)-2-hydroxypropyl)-N-(1-methylcyclopentyl)methanesulfonamide], the concentration giving a half-maximal response (EC50) was 149 nM. Same read-out and setting: with `O=S1(=O)CCCCN1CC(O)Cn1c2ccc(F)cc2c2c(F)cccc21` (stereo not drawn) [Compound 107, N-(3-(3,5-Diflouoro-9H-carbazol-9-yl)-2-hydroxypropyl)-1,2-thiazinane 1,1-dioxide] the figure was 240 nM; with `CS(=O)(=O)N(Cc1ccco1)CC(O)Cn1c2cc(F)ccc2c2ccc(F)cc21` (stereo not drawn) [Compound 93, N-(3-(2,7-Difluoro-9H-carbazol-9-yl)-2-hydroxypropyl)-N-(furan-2-ylmethyl)methanesulfonamide], 2890 nM.

In the case of `CN(CC(O)Cn1c2ccc(F)cc2c2ccc(F)cc21)S(C)(=O)=O` (stereo not drawn) [Compound 103, N-(3-(2,6-Difluoro-9H-carbazol-9-yl)-2-hydroxypropyl)-N-methylmethanesulfonamide], the EC50 came out at 2210 nM. Same read-out and setting: for `CS(=O)(=O)N(CC(O)Cn1c2ccccc2c2ccccc21)C1CCc2ccccc21` (single isomer, unassigned) [Compound 61, N-(3-(9H-Carbazol-9-yl)-2-hydroxypropyl)-N-(2,3-dihydro-1H-inden-1-yl)methanesulfonamide] the value was 4470 nM. `O=S1(=O)Cc2ccccc2CN1CC(O)Cn1c2ccccc2c2ccccc21` (stereo not drawn) [Compound 35, N-(3-(9H-Carbazol-9-yl)-2-hydroxypropyl)-3,4-dihydro-1H-benzo[d][1,2]thiazine 2,2-dioxide] returned an EC50 of 1500 nM.

`CC1CCCC(N(CC(O)Cn2c3ccccc3c3ccccc32)S(C)(=O)=O)C1` (stereo not drawn) [Compound 142, N-(3-(9H-Carbazol-9-yl)-2-hydroxypropyl)-N-(3-methylcyclohexyl)methanesulfonamide] displayed an EC50 of 813 nM.

Still in this experiment, the particulars now being: stable U2OS reporter cells harboring Per2-dLuc; luminescence monitored over 4-5 days at 35° C.
As for `CC1CCCC1N(CC(O)Cn1c2ccc(F)cc2c2cc(F)ccc21)S(C)(=O)=O` (single isomer, unassigned) [Compound 193B, N-(3-(3,6-Difluoro-9H-carbazol-9-yl)-2-hydroxypropyl)-N-(2-methylcyclopentyl)methanesulfonamide], the EC50 was 654 nM.

(Values after patent publication US10383880B2 (Reset Therapeutics, Inc., priority 2012, dated 2019).)
